Assay results as given in US9399636B2, “Substituted dipyridylamines and uses thereof” (Genentech, Inc., priority 2012, dated 2016).
pKi: −log10 of the molar value.

Target: T1, DLK (Homo sapiens, UniProt Q12852)
T1 construct: N-terminally GST-tagged DLK (catalytic domain amino acid 1-520) (Carna Bioscience); GST (N); purchased Carna Bioscience
T1 sequence (Q12852 1-520): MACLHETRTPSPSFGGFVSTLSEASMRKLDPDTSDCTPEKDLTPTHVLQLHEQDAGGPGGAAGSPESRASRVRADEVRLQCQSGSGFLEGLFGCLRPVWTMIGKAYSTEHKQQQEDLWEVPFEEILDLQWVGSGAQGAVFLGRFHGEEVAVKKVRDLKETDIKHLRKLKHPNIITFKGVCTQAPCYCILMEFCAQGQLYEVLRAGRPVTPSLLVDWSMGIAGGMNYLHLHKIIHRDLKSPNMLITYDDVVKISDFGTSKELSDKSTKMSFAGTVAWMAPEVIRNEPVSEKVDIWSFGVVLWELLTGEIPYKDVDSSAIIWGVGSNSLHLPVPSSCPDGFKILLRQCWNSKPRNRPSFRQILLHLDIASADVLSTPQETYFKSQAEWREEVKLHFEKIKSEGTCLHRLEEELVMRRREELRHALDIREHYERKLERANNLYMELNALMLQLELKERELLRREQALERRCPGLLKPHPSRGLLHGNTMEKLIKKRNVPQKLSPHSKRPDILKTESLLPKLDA
Assay: DLK TR-FRET assay
Type: biochemical
Conditions: 5 nM GST-tagged DLK (catalytic domain amino acid 1-520), 40 nM HIS-tagged MKK4 K131M substrate, 30 μM ATP, 60 minutes
Protocol: DLK TR-FRET assay: DLK kinase reactions (20 μL) containing 5 nM N-terminally GST-tagged DLK (catalytic domain amino acid 1-520) (Carna Bioscience), 40 nM N-terminally HIS-tagged MKK4 K131M substrate, and 30 μM ATP in kinase reaction buffer (50 mM HEPES, pH 7.5, 0.01% Triton X-100, 0.01% Bovine γ-Globulins, 2 mM DTT, 10 mM MgCl2 and 1 mM EGTA), and testing compound 1:3 serial diluted starting at 20 uM were incubated at ambient temperature for 60 minutes in 384 well OptiPlate (Perkin Elmer). To quench kinase reactions and detect phosphorylated MKK4, 15 μL of TR-FRET antibody mixture containing 2 nM anti-phosphorylated MKK4 labeled with Europium cryptate (Cisbio) and 23 nM anti-HIS labeled with D2 (Cisbio) in detection buffer (25 mM Tris pH 7.5, 100 mM NaCl, 100 mM EDTA, 0.01% Tween-20, and 200 mM KF) was added to the reaction mixture. The detection mixture was incubated for 3 hours at ambient temperature and the TR-FRET was detected with an EnVision multilabel plate reader (Perkin-Elmer) using the LANCE/DELFIA Dual Enh label from Perkin-Elmer (excitation filter: UV2 (TRF) 320 and emission filters: APC 665 and Europium 615).

Row | Compound | pKi
1 | FC1CN(c2cc(C3CCN(C4COC4)CC3)cc(Nc3cc(C(F)F)ccn3)n2)C1 [Example 44, (4-Difluoromethyl-pyridin-2-yl)-[6-(3-fluoro-azetidin-1-yl)-1′-oxetan-3-yl-1′,2′,3′,4′,5′,6′-hexahydro-[4,4′]bipyridinyl-2-yl]-amine] | 8.17
2 | CC(C)(C)OC(=O)N1CC(c2cc(Cl)nc(Nc3cc(C(F)F)ccn3)c2)C1 [Example 45, 3-[2-Chloro-6-(4-difluoromethyl-pyridin-2-ylamino)-pyridin-4-yl]-azetidine-1-carboxylic acid tert-butyl ester] | 7.32
3 | N#Cc1ccnc(Nc2cc(C3(C#N)CCOCC3)cc(N3CC(F)C3)n2)c1 [Example 46, 2-[4-(4-Cyano-tetrahydro-pyran-4-yl)-6-(3-fluoro-azetidin-1-yl)-pyridin-2-ylamino]-isonicotinonitrile] | 7.89
4 | N#Cc1ccnc(Nc2cc(C3(C#N)CCOCC3)cc(N3CCCC3=O)n2)c1 [Example 47, 2-[4-(4-Cyano-tetrahydro-pyran-4-yl)-6-(2-oxo-pyrrolidin-1-yl)-pyridin-2-ylamino]-isonicotinonitrile] | 7.40
5 | COC1CN(c2cc(C3CCN(C4COC4)CC3)cc(Nc3cc(C(F)F)ccn3)n2)C1 [Example 48, (4-Difluoromethyl-pyridin-2-yl)-[6-(3-methoxy-azetidin-1-yl)-1′-oxetan-3-yl-1′,2′,3′,4′,5′,6′-hexahydro-[4,4′]bipyridinyl-2-yl]-amine] | 7.68
6 | N#CC1(c2cc(Nc3cc(C(F)F)ccn3)nc(N3CCCC3=O)c2)CCOCC1 [Example 49, 4-[2-(4-Difluoromethyl-pyridin-2-ylamino)-6-(2-oxo-pyrrolidin-1-yl)-pyridin-4-yl]-tetrahydro-pyran-4-carbonitrile] | 7.72
7 | FC(F)c1ccnc(Nc2cc(C3CCN(C4COC4)CC3)cc(N3CC4CC4C3)n2)c1 (centres unmarked) [Example 50, [6-(3-Aza-bicyclo[3.1.0]hex-3-yl)-1′-oxetan-3-yl-1′,2′,3′,4′,5′,6′-hexahydro-[4,4′]bipyridinyl-2-yl]-(4-difluoromethyl-pyridin-2-yl)-amine] | 9.00
8 | FC(F)c1ccnc(Nc2cc(C3CCN(C4COC4)CC3)cc(N3CCC3)n2)c1 [Example 51, (6-Azetidin-1-yl-1′-oxetan-3-yl-1′,2′,3′,4′,5′,6′-hexahydro-[4,4′]bipyridinyl-2-yl)-(4-difluoromethyl-pyridin-2-yl)-amine] | 8.62
9 | N#CC1(c2cc(Nc3cc(C(F)F)ccn3)nc(N3CC4CC4C3)c2)CCOCC1 (centres unmarked) [Example 52, 4-[2-(3-Aza-bicyclo[3.1.0]hex-3-yl)-6-(4-difluoromethyl-pyridin-2-ylamino)-pyridin-4-yl]-tetrahydro-pyran-4-carbonitrile] | 8.70
10 | N#CC1(c2cc(Nc3cc(C(F)F)ccn3)nc(N3CCC3)c2)CCOCC1 [Example 53, 4-[2-Azetidin-1-yl-6-(4-difluoro-methyl-pyridin-2-ylamino)-pyridin-4-yl]-tetrahydro-pyran-4-carbonitrile] | 7.62
11 | COC1CN(c2cc(C3(C#N)CCOCC3)cc(Nc3cc(C(F)F)ccn3)n2)C1 [Example 54, 4-[2-(4-Difluoromethyl-pyridin-2-ylamino)-6-(3-methoxy-azetidin-1-yl)-pyridin-4-yl]-tetrahydro-pyran-4-carbonitrile] | 7.68
12 | N#CC1(c2cc(Nc3cc(C(F)F)ccn3)nc(N3CC(F)C3)c2)CCOCC1 [Example 55, 4-[2-(4-Difluoromethyl-pyridin-2-ylamino)-6-(3-fluoro-azetidin-1-yl)-pyridin-4-yl]-tetrahydro-pyran-4-carbonitrile] | 8.05
13 | N#CC1(c2cc(Nc3cc(C(F)F)ccn3)nc(N3CCC(F)(F)C3)c2)CCOCC1 [Example 56, 4-[2-(4-Difluoromethyl-pyridin-2-ylamino)-6-(3,3-difluoro-pyrrolidin-1-yl)-pyridin-4-yl]-tetrahydro-pyran-4-carbonitrile] | 8.68
14 | CC(=O)N1CCC(c2cc(Nc3cc(C(F)F)ccn3)nc(C3CC3)c2)CC1 [Example 57, 1-[6′-Cyclopropyl-2′-(4-difluoromethyl-pyridin-2-ylamino)-3,4,5,6-tetrahydro-2H-[4,4′]bipyridinyl-1-yl]-ethanone] | 8.46
15 | CCc1cc(C2CCN(C(C)=O)CC2)cc(Nc2cc(C(F)F)ccn2)n1 [Example 58, 1-[2′-(4-Difluoromethyl-pyridin-2-ylamino)-6′-ethyl-3,4,5,6-tetrahydro-2H-[4,4′]bipyridinyl-1-yl]-ethanone] | 7.19
16 | CC(=O)N1CCC(c2cc(Nc3cc(C#N)ccn3)nc(C3CC3)c2)CC1 [Example 59, 2-(1′-Acetyl-6-cyclopropyl-1′,2′,3′,4′,5′,6′-hexahydro-[4,4′]bipyridinyl-2-ylamino)-isonicotinonitrile] | 8.82
17 | CCc1cc(C2CCN(C(C)=O)CC2)cc(Nc2cc(C#N)ccn2)n1 [Example 60, 2-(1′-Acetyl-6-ethyl-1′,2′,3′,4′,5′,6′-hexahydro-[4,4′]bipyridinyl-2-ylamino)-isonicotinonitrile] | 7.55
18 | N#Cc1ccnc(Nc2cc(C3(C#N)CCOCC3)cc(N3CCC(F)(F)C3)n2)c1 [Example 61, 2-[4-(4-Cyano-tetrahydro-pyran-4-yl)-6-(3,3-difluoro-pyrrolidin-1-yl)-pyridin-2-ylamino]-isonicotinonitrile] | 8.33
19 | CC(=O)N1CCC(c2cc(C)nc(Nc3cc(C(F)F)ccn3)c2)CC1 [Example 62, 1-[2′-(4-Difluoromethyl-pyridin-2-ylamino)-6′-methyl-3,4,5,6-tetrahydro-2H-[4,4′]bipyridinyl-1-yl]-ethanone] | 6.77
20 | N#Cc1ccnc(Nc2cc(C3(C#N)CCOCC3)cc(C3CC3)n2)c1 [Example 63, 2-[4-(4-Cyano-tetrahydro-pyran-4-yl)-6-cyclopropyl-pyridin-2-ylamino]-isonicotinonitrile] | 8.07

Continued, values first:

Row | pKi | Compound
21 | 6.77 | Cc1cc(C2(C#N)CCOCC2)cc(Nc2cc(C#N)ccn2)n1 [Example 64, 2-[4-(4-Cyano-tetrahydro-pyran-4-yl)-6-methyl-pyridin-2-ylamino]-isonicotinonitrile]
22 | 7.52 | CC(=O)N1CCC(c2cc(Cl)nc(Nc3cc(C#N)ccn3)c2)CC1 [Example 65, 2-(1′-Acetyl-6-chloro-1′,2′,3′,4′,5′,6′-hexahydro-[4,4′]bipyridinyl-2-ylamino)-isonicotinonitrile]
23 | 7.37 | N#CC1(c2cc(Cl)nc(Nc3cc(C(F)F)ccn3)c2)CCOCC1 [Example 66, 4-[2-Chloro-6-(4-difluoromethyl-pyridin-2-ylamino)-pyridin-4-yl]-tetrahydro-pyran-4-carbonitrile]
24 | 9.40 | N#Cc1ccnc(Nc2cc(C3(C#N)CCOCC3)cc(N3CC4CC4C3)n2)c1 (centres unmarked) [Example 67, 2-[6-(3-Aza-bicyclo[3.1.0]hex-3-yl)-4-(4-cyano-tetrahydro-pyran-4-yl)-pyridin-2-ylamino]-isonicotinonitrile]
25 | 9.52 | C[C@@H]1CCCN1c1cc(C2CCN(C3COC3)CC2)cc(Nc2cc(C(F)F)ccn2)n1 [Example 68, (4-Difluoromethyl-pyridin-2-yl)-[6-((R)-2-methyl-pyrrolidin-1-yl)-1′-oxetan-3-yl-1′,2′,3′,4′,5′,6′-hexahydro-[4,4′]bipyridinyl-2-yl]-amine]
26 | 8.40 | N#Cc1ccnc(Nc2cc(C3(C#N)CCOCC3)cc(N3CC4CC(F)(F)C4C3)n2)c1 (centres unmarked) [Example 69, 2-[4-(4-Cyano-tetrahydro-pyran-4-yl)-6-(6,6-difluoro-3-aza-bicyclo[3.2.0]hept-3-yl)-pyridin-2-ylamino]-isonicotinonitrile]
27 | 8.74 | N#Cc1ccnc(Nc2cc(C3CCN(C4COC4)CC3)cc(N3CCC[C@@H]3C(F)(F)F)n2)c1 [Example 70, 2-[1′-Oxetan-3-yl-6-((R)-2-trifluoromethyl-pyrrolidin-1-yl)-1′,2′,3′,4′,5′,6′-hexahydro-[4,4′]bipyridinyl-2-ylamino]-isonicotinonitrile]
28 | 9.44 | FC(F)c1ccnc(Nc2cc(C3CCN(C4COC4)CC3)cc(N3CCC(F)(F)C3)n2)c1 [Example 71, (4-Difluoromethyl-pyridin-2-yl)-[6-(3,3-difluoro-pyrrolidin-1-yl)-1′-oxetan-3-yl-1′,2′,3′,4′,5′,6′-hexahydro-[4,4′]bipyridinyl-2-yl]-amine]
29 | 6.82 | Cc1cc(C2CCN(CC(F)(F)F)CC2)cc(Nc2cc(C#N)ccn2)n1 [Example 72, 2-[6-Methyl-1′-(2,2,2-trifluoro-ethyl)-1′,2′,3′,4′,5′,6′-hexahydro-[4,4′]bipyridinyl-2-ylamino]-isonicotinonitrile]
